Entries after “also recorded” stand apart in the source; their conditions may differ.
Test system: actin polymerization
Test: Inhibition study: actin polymerization inhibitor/activator, VEGFB ELISA
Format: cell-based, human
Conditions: 24 hr
Experimental: After cell encapsulation with two different molecular weight polymers such as 5 kDa and 30 kDa, the cells were rinsed and resuspended in the media containing actin polymerization inhibitor (Cytochalastin D (CytoD): 2 μM) and activator (lysophosphatidic (LPA): […] After the incubation for 24 hr with different pharmacological chemicals, the supernatants from different treatment groups were collected to measure VEGFB production from the cells using ELISAs as above.

Compound	VEGFB concentration in NPCs coated with 30 kDa PEG (2 μM CytoD)	VEGFB production in NPCs coated with 5 kDa PEG (2 μM CytoD)	VEGFB production in 30 kDa encapsulated NPCs (LPA)
C=C1[C@@H](C)[C@H]2[C@H](Cc3ccccc3)NC(=O)[C@]23[C@H](OC(C)=O)/C=C/[C@@](C)(O)C(=O)[C@@H](C)C/C=C/[C@H]3[C@@H]1O [CytoD, Cytochalastin D]	not significantly different	significantly different from other groups; also recorded: increased VEGFB production	
lysophosphatidic acid [LPA]			significantly different from other groups; also recorded: decreased production of VEGFB

From patent US20210130769A1, “Method for Single Cell Encapsulation via Metabolic Glycoengineering and Copper-Free Click Chemistry” (The Board of Trustees Of the Leland Stanford Junior …, priority 2019, published 2021)
